In patent US20150126464A1, “THERAPEUTIC DRUG AND THERAPEUTIC METHOD FOR NEUROLOGICAL DISEASES INCLUDING ALZHEIMER'S DISEASE ASSOCIATED WITH 1,25D3-MARRS” (priority 2013, published 2015):

Tested on: normal mice
Assay: Measurement of spontaneous motor activity
Assay type: in vivo, mouse
Settings: normal ddY mice, diosgenin 10 μmol/kg/day i.p., vs vehicle
Procedure: Diosgenin (Wako Pure Chemical Industries, Ltd., Osaka, Japan) was dissolved in ethanol at 10 times the final concentration to give a stock solution, and the stock solution was diluted in a 5% aqueous solution of glucose to the final concentration. The diosgenin solution was intraperitoneally administered to normal mice (ddY mice, male, 6 weeks old) once a day (10 μmol/kg/day) for 5 or 6 days. One hour after the last administration, each mouse was housed in a separate open-field box made of polyvinyl chloride (33 cm×28 cm; height: 26.5 cm), habituated to the environment for 10 minutes, and used in the test.
The spontaneous motor activity was evaluated based on the distance each mouse traveled in an open field during 10 minutes.

Question: Which “spontaneous motor activity (distance traveled in an open field during 10 minutes)” value does the source give for `C[C@@H]1CC[C@@]2(OC1)O[C@H]1C[C@H]3[C@@H]4CC=C5C[C@@H](O)CC[C@]5(C)[C@H]4CC[C@]3(C)[C@H]1[C@@H]2C` [diosgenin] here?
Answer: no significant difference
